Patent US11957687B2 (REGENERON PHARMACEUTICALS, INC., priority 2019, dated 2024)

What follows are compounds tested against HSD17B13 (Homo sapiens (Human), UniProt Q7Z5P4) (assay: HSD17B13 enzymatic inhibition assay (150 nM or 50 nM HSD17B13)). Conditions: 50 nM HSD17B13; read-out: Inhibition of 50 nM of HSD17B13 IC50.
Assay type: biochemical

Chain of HSD17B13 (Q7Z5P4 other isoform, or with tags, fused parts or gaps): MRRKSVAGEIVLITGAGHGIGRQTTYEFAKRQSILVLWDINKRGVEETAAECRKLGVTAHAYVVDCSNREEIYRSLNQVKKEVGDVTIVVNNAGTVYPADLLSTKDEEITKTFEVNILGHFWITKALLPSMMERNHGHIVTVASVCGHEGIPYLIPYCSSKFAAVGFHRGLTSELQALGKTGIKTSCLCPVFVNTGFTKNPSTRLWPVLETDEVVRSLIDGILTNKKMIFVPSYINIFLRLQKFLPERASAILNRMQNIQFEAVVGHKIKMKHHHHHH

Row | Compound | IC50 [µM]
1 | O=C(NC1CCCc2c(CO)cccc21)c1ccc(C(F)(F)F)[nH]c1=O (centres unmarked) [Compound 345, N-(5-(hydroxymethyl)-1,2,3,4-tetrahydronaphthalen-1-yl)-2-oxo-6-(trifluoromethyl)-1,2-dihydropyridine-3-carboxamide] | 8.97
2 | Cc1ccc2c(c1)C(NC(=O)c1ccc(C(F)(F)F)[nH]c1=O)CCS2 (centres unmarked) [Compound 236, N-(6-methylthiochroman-4-yl)-2-oxo-6-(trifluoromethyl)-1,2-dihydropyridine-3-carboxamide] | 0.74
3 | Cc1ccc2c(c1)C(NC(=O)c1ccc(C(F)(F)F)[nH]c1=O)c1ccccc1O2 (centres unmarked) [Compound 148, N-(2-methyl-9H-xanthen-9-yl)-2-oxo-6-(trifluoromethyl)-1,2-dihydropyridine-3-carboxamide] | 0.67
4 | Cc1ccc2c(c1)Sc1cc(C)ccc1C2NC(=O)c1cc(OC2CCOCC2)c(C(F)(F)F)[nH]c1=O [Compound 258, N-(3,6-dimethyl-9H-thioxanthen-9-yl)-2-oxo-5-((tetrahydro-2H-pyran-4-yl)oxy)-6-(trifluoromethyl)-1,2-dihydropyridine-3-carboxamide] | 0.01
5 | Cc1ccc2c(c1)Oc1cc(C)ccc1C2NC(=O)c1c(C)cc(C(F)(F)F)[nH]c1=O [Compound 202, N-(3,6-dimethyl-9H-xanthen-9-yl)-4-methyl-2-oxo-6-(trifluoromethyl)-1,2-dihydropyridine-3-carboxamide] | 0.35
6 | CCC1CC(NC(=O)c2ccc(C(F)(F)F)[nH]c2=O)c2cc(C)ccc2O1 (centres unmarked) [Compound 404, N-(2-ethyl-6-methylchroman-4-yl)-2-oxo-6-(trifluoromethyl)-1,2-dihydropyridine-3-carboxamide] | 0.22
7 | Cc1ccc2c(c1)C(NC(=O)c1ccc(C(F)(F)F)[nH]c1=O)CC(C)O2 (centres unmarked) [Compound 394, N-(2,6-dimethylchroman-4-yl)-2-oxo-6-(trifluoromethyl)-1,2-dihydropyridine-3-carboxamide] | 0.26
8 | O=C(N[C@@H]1C[C@H](CCO)Cc2ccccc21)c1ccc(C(F)(F)F)[nH]c1=O [Compound 262, N-((1R,3R)-3-(2-hydroxyethyl)-1,2,3,4-tetrahydronaphthalen-1-yl)-2-oxo-6-(trifluoromethyl)-1,2-dihydropyridine-3-carboxamide] | 0.98
9 | O=C(NC1CCCc2c(/C=C/c3ccccc3)cccc21)c1ccc(C(F)(F)F)[nH]c1=O (centres unmarked) [Compound 548, (E)-2-oxo-N-(5-styryl-1,2,3,4-tetrahydronaphthalen-1-yl)-6-(trifluoromethyl)-1,2-dihydropyridine-3-carboxamide] | 9.28
10 | CN(C)c1ccc(C(NC(=O)c2ccc(C(F)(F)F)[nH]c2=O)c2ccccc2)cc1 (centres unmarked) [Compound 41, N-((4-(dimethylamino)phenyl) (phenyl)methyl)-2-oxo-6-(trifluoromethyl)-1,2-dihydropyridine-3-carboxamide] | 1.29
11 | CCCC1=C(NC(=O)c2ccc(C(F)(F)F)[nH]c2=O)c2ccc(C)cc2C1=O [Compound 344, N-(6-methyl-1-oxo-2-propyl-1H-inden-3-yl)-2-oxo-6-(trifluoromethyl)-1,2-dihydropyridine-3-carboxamide] | 2.25
12 | O=C(NC1CCOc2cccnc21)c1ccc(C(F)(F)F)[nH]c1=O (centres unmarked) [Compound 477, N-(3,4-dihydro-2H-pyrano[3,2-b]pyridin-4-yl)-2-oxo-6-(trifluoromethyl)-1,2-dihydropyridine-3-carboxamide] | > 10
13 | Cc1ccc(C(CC2CCCO2)NC(=O)c2ccc(C(F)(F)F)[nH]c2=O)cc1 (centres unmarked) [Compound 550, 2-oxo-N-(2-(tetrahydrofuran-2-yl)-1-(p-tolyl)ethyl)-6-(trifluoromethyl)-1,2-dihydropyridine-3-carboxamide] | 1.6
14 | CCCC1=C(NC(=O)c2ccc(C(F)(F)F)[nH]c2=O)c2cc(C)ccc2C1=O [Compound 542, N-(5-methyl-1-oxo-2-propyl-1H-inden-3-yl)-2-oxo-6-(trifluoromethyl)-1,2-dihydropyridine-3-carboxamide] | 4.67
15 | COc1c(C)ccc2c1CCCC2NC(=O)c1ccc(C(F)(F)F)[nH]c1=O (centres unmarked) [Compound 232, N-(5-methoxy-6-methyl-1,2,3,4-tetrahydronaphthalen-1-yl)-2-oxo-6-(trifluoromethyl)-1,2-dihydropyridine-3-carboxamide] | 2.69
16 | Cc1ccc2c(c1)S(=O)(=O)c1cc(C)ccc1C2NC(=O)c1ccc(C(F)(F)F)[nH]c1=O [Compound 475, N-(3,6-dimethyl-10,10-dioxido-9H-thioxanthen-9-yl)-2-oxo-6-(trifluoromethyl)-1,2-dihydropyridine-3-carboxamide] | 0.01
17 | Cc1cc(C(F)(F)F)[nH]c(=O)c1C(=O)NC1c2ccc(Cl)cc2Oc2cc(Cl)ccc21 [Compound 203, N-(3,6-dichloro-9H-xanthen-9-yl)-4-methyl-2-oxo-6-(trifluoromethyl)-1,2-dihydropyridine-3-carboxamide] | 1.05
18 | O=C(NC1c2ccc(O)cc2-c2cc(O)ccc21)c1ccc(C(F)(F)F)[nH]c1=O [Compound 45, N-(3,6-dihydroxy-9H-fluoren-9-yl)-2-oxo-6-(trifluoromethyl)-1,2-dihydropyridine-3-carboxamide] | 1.75

Row | Compound | IC50 [µM]
19 | O=C(NC1c2ccc(Cl)cc2Sc2cc(Cl)ccc21)c1ccc(C(F)(F)F)[nH]c1=O [Compound 250, N-(3,6-dichloro-9H-thioxanthen-9-yl)-2-oxo-6-(trifluoromethyl)-1,2-dihydropyridine-3-carboxamide] | 0.06
20 | O=C(NC1c2ccccc2Oc2ccncc21)c1ccc(C(F)(F)F)[nH]c1=O (centres unmarked) [Compound 332, N-(10H-chromeno[3,2-c]pyridin-10-yl)-2-oxo-6-(trifluoromethyl)-1,2-dihydropyridine-3-carboxamide] | 1.29
21 | O=C(NC(c1ccc(F)cc1)c1ccc(F)cc1)c1ccc(C(F)(F)F)[nH]c1=O [Compound 34, N-(bis(4-fluorophenyl)methyl)-2-oxo-6-(trifluoromethyl)-1,2-dihydropyridine-3-carboxamide] | 1.63
22 | O=C(NC(c1ccc(Cl)cc1)c1ccncn1)c1ccc(C(F)(F)F)[nH]c1=O (centres unmarked) [Compound 219, N-((4-chlorophenyl)(pyrimidin-4-yl)methyl)-2-oxo-6-(trifluoromethyl)-1,2-dihydropyridine-3-carboxamide] | > 10
23 | O=C(NC(c1ccccc1)c1ccc(C2=CCNCC2)cc1)c1ccc(C(F)(F)F)[nH]c1=O (centres unmarked) [Compound 105, 2-oxo-N-(phenyl(4-(1,2,3,6-tetrahydropyridin-4-yl)phenyl)methyl)-6-(trifluoromethyl)-1,2-dihydropyridine-3-carboxamide] | 4.28
24 | O=C(NC1c2ccc(Cl)cc2Oc2cccc(Cl)c21)c1cnc(C(F)(F)F)[nH]c1=O (centres unmarked) [Compound 191, N-(1,6-dichloro-9H-xanthen-9-yl)-6-oxo-2-(trifluoromethyl)-1,6-dihydropyrimidine-5-carboxamide] | 0.87
25 | CCc1cccc2c1CCCC2NC(=O)c1ccc(C(F)(F)F)[nH]c1=O (centres unmarked) [Compound 530, N-(5-ethyl-1,2,3,4-tetrahydronaphthalen-1-yl)-2-oxo-6-(trifluoromethyl)-1,2-dihydropyridine-3-carboxamide] | > 10
26 | Cc1ccc2c(c1)Oc1cccc(C)c1C2NC(=O)c1cc(C2CCCCC2)c(C(F)(F)F)[nH]c1=O (centres unmarked) [Compound 186, 5-cyclohexyl-N-(1,6-dimethyl-9H-xanthen-9-yl)-2-oxo-6-(trifluoromethyl)-1,2-dihydropyridine-3-carboxamide] | 1.83
27 | CCc1ccc2c(c1)Oc1cc(CC)ccc1C2NC(=O)c1ccc(C(F)(F)F)[nH]c1=O [Compound 143, N-(3,6-diethyl-9H-xanthen-9-yl)-2-oxo-6-(trifluoromethyl)-1,2-dihydropyridine-3-carboxamide] | 0.09
28 | Cc1ccc2c(c1)Oc1cccc(C)c1C2NC(=O)c1cc(Cc2ccccc2)c(C(F)(F)F)[nH]c1=O (centres unmarked) [Compound 502, 5-benzyl-N-(1,6-dimethyl-9H-xanthen-9-yl)-2-oxo-6-(trifluoromethyl)-1,2-dihydropyridine-3-carboxamide] | 0.26
29 | O=C(NC1c2ccccc2Sc2ccc(Cl)cc21)c1ccc(C(F)(F)F)[nH]c1=O (centres unmarked) [Compound 249, N-(2-chloro-9H-thioxanthen-9-yl)-2-oxo-6-(trifluoromethyl)-1,2-dihydropyridine-3-carboxamide] | 0.39
30 | Cc1ccc2c(c1)C(NC(=O)c1ccc(C(F)F)[nH]c1=O)c1ccccc1S2 (centres unmarked) [Compound 281, 6-(difluoromethyl)-N-(2-methyl-9H-thioxanthen-9-yl)-2-oxo-1,2-dihydropyridine-3-carboxamide] | 1.88
31 | CCCN1CCC(NC(=O)c2ccc(C(F)(F)F)[nH]c2=O)c2ccc(C)cc21 (centres unmarked) [Compound 337, N-(7-methyl-1-propyl-1,2,3,4-tetrahydroquinolin-4-yl)-2-oxo-6-(trifluoromethyl)-1,2-dihydropyridine-3-carboxamide] | 4.19
32 | Cc1ccc2c(c1)Oc1cc(C)ccc1C2NC(=O)c1cc(N2CCN(Cc3ccccc3)CC2)c(C(F)(F)F)[nH]c1=O [Compound 430, 5-(4-benzylpiperazin-1-yl)-N-(3,6-dimethyl-9H-xanthen-9-yl)-2-oxo-6-(trifluoromethyl)-1,2-dihydropyridine-3-carboxamide] | 0.04
33 | Cc1ccc2c(c1)CN(C)C(=O)C2NC(=O)c1ccc(C(F)(F)F)[nH]c1=O (centres unmarked) [Compound 375, N-(2,7-dimethyl-3-oxo-1,2,3,4-tetrahydroisoquinolin-4-yl)-2-oxo-6-(trifluoromethyl)-1,2-dihydropyridine-3-carboxamide] | 2.4
34 | Cc1ccc2c(c1)C(NC(=O)c1ccc(C(F)(F)F)[nH]c1=O)CCO2 (centres unmarked) [Compound 233, N-(6-methylchroman-4-yl)-2-oxo-6-(trifluoromethyl)-1,2-dihydropyridine-3-carboxamide] | 1.32
35 | Cc1ccc2c(c1)C(NC(=O)c1ccc(C(F)(F)F)[nH]c1=O)CS2 (centres unmarked) [Compound 393, N-(5-methyl-2,3-dihydrobenzo[b]thiophen-3-yl)-2-oxo-6-(trifluoromethyl)-1,2-dihydropyridine-3-carboxamide] | 1.23
